Measurements from article PMC11643690, “Chelating Properties of N6O-Donors Toward Cu(II) Ions: Speciation in Aqueous Environments and Catalytic Activity of the Dinuclear Complexes” (Molecules, 2024).

Tests used:
[1] = Potentiometric titration of the free ligand (protonation constants); format: physicochemical
Method: As far as the ligand behavior in aqueous solutions is concerned, the speciation curves were obtained from the titration of an L-CH3 solution (0.1 mM in DMSO 5% (v/v)/H2O (HCl/KCl); initial pH = 2.7) by stepwise addition of NaOH 0.1 M. The distribution curves and the acid association constants were then calculated (Figure 1 and Table 1).
At low pH, L-CH3 has seven protic groups that can be deprotonated upon pH increase: besides the phenolic OH, two tertiary amines and four pyridines. From the titration, six logKa could be successfully obtained. The highest one, logKa = 9.75, is related to the phenolic group. The next constants are ascribed to the nitrogens of the tertiary amines and of the Pyr groups, although they are difficult to unambiguously correlate with a specific functional group. […] The potentiometric titration was carried out till pH 9.5 to avoid the precipitation of the ligand in the basic environment.
Potentiometric measurements were carried out using the Metrohm pH-meter system (Herisau, Switzerland) with a Metrohm semi-micro combination electrode at 25 °C, calibrated in a hydrogen ion concentration using HCl. The ligands were dissolved in DMSO (5% v/v/H2O (HCl/KCl)) in order to obtain a concentration of 1 mM. The titrant (KOH 0.1M) was added with a micrometric syringe at 298 K in the pH range of 2.5–11.5 in an argon atmosphere. The stability constants and stoichiometry of the complexes were calculated using the titration curves and the SUPERQUAD and HYPERQUAD [47, 48].

[2] = UV–Vis titration of HL-CH3 with Zn(ClO4)2, binding constant; conditions: Zn(II); 0.1 mM ligand, 5% v/v MeOH/BBS 50 mM, pH 7.4
Method: (§1) To evaluate the selectivity of these ligands towards copper, the same titrations were performed with different metal salts: Fe(ClO4)2, Mn(ClO4)2, and Zn(ClO4)2, monitoring the methyl-substituted ligand (Figures S39–S41). These metal ions were chosen because they are also divalent and common in biological matrixes.
(§2) For the determination of the binding constant between metals and ligands, a solution of the latter was titrated with 0.2 eq of metal for each addition. The titrating solutions were 10 mM and 100 μM for Cu(ClO4)2 versus 0.1 mM and 1 μM for the ligands in 5% v/v MeOH/BBS (50 mM, pH 7.4), respectively. […] The absorbance variation was monitored from 200 nm to 800 nm at 25 °C. […]
(§3) UV-vis spectra of ligands and complexes were recorded in a quartz cuvette, with 1 cm of optical path. […]
(§4) The titrating solutions were 10 mM and 100 μM for Cu(ClO4)2 versus 0.1 mM and 1 μM for the ligands in 5% v/v MeOH/BBS (50 mM, pH 7.4), respectively. […] The absorbance variation was monitored from 200 nm to 800 nm with a Varian Cary 50 instrument, thermostated at 25 °C.
(§5) The binding constants were then determined by nonlinear regression analysis of the plot “ΔAbs/b vs Cu(II) concentration” (Equation 7 ), according to K. Connors, The Measurement of Molecular Complex Stability, Madison, Wisconsin, Wiley, 1987[5]. […]
(§6) ΔA: absorbance at a certain wavelength. […]

[3] = UV–Vis titration of HL-CH3 with Mn(ClO4)2, binding constant; conditions: Mn(II); 0.1 mM ligand, 5% v/v MeOH/BBS 50 mM, pH 7.4
Method: as §1, §2, §3, §4, §5, §6

[4] = ESI-MS(+) competition with equimolar Cu, Fe, Mn, Zn perchlorates; format: binding; conditions: half an equivalent of ligand
Method: Equimolar solutions of Cu(ClO4)2, Fe(ClO4)2, Mn(ClO4)2, and Zn(ClO4)2 were prepared, and half an equivalent of HL-CH3 was added. The composition of the solution was then analyzed with ESI-MS to determine which species were formed. […] The most intense signal is the cluster at m/z = 855, referring to the species [Cu2(L-CH3)(ClO4)2]^+. Other signals are at m/z = 801 for [Cu2(L-CH3)(COO)(ClO4)]^+ and m/z = 351 for [Cu2(L-CH3)(ClO4)]^2+.

[5] = UV–Vis titration of HL-CH3 with Fe(ClO4)2, binding constant; conditions: Fe(II); 0.1 mM ligand, 5% v/v MeOH/BBS 50 mM, pH 7.4
Method: as §1, §2, §3, §4, §5, §6

[6] = overall protonation constant, DMSO 5% (v/v)/H2O (HCl/KCl), 25 °C

logβi, L^− + 2H^+ ⇌ [H2L]^+ [1, 6]: 16.57 ± 0.01 | logβi, L^− + 3H^+ ⇌ [H3L]^2+ [1, 6]: 21.56 ± 0.01 | logβi, L^− + 4H^+ ⇌ [H4L]^3+ [1, 6]: 25.27 ± 0.01 | logβi, L^− + 5H^+ ⇌ [H5L]^4+ [1, 6]: 27.83 ± 0.02 | logβi, L^− + 6H^+ ⇌ [H6L]^5+ [1, 6]: 29.60 ± 0.11 | logβi, L^− + H^+ ⇌ HL [1, 6]: 9.75 ± 0.01 | logKa, HL + H^+ ⇌ [H2L]^+ ([1]; stepwise constant): 6.82 | logKa, [H2L]^+ + H^+ ⇌ [H3L]^2+ ([1]; stepwise constant): 4.99 | logKa, [H3L]^2+ + H^+ ⇌ [H4L]^3+ ([1]; stepwise constant): 3.71 | logKa, [H4L]^3+ + H^+ ⇌ [H5L]^4+ ([1]; stepwise constant): 2.56 | logKa, [H5L]^4+ + H^+ ⇌ [H6L]^5+ ([1]; stepwise constant): 1.77 | logKa, L + H^+ ⇌ HL ([1]; stepwise constant, phenolic group): 9.75 | Kbind [2]: 2.49 × 10^8 M^−2 | log(Kbind) [2]: 8.39 | Kbind [3]: 6.12 × 10^7 M^−2 | log(Kbind) [3]: 7.78 | Kbind [5]: 1.09 × 10^8 M^−2 | log(Kbind) [5]: 8.03
Structure (SMILES): Cc1cc(CN(Cc2ccccn2)Cc2ccccn2)c(O)c(CN(Cc2ccccn2)Cc2ccccn2)c1 [HL-CH3, 2,6-bis[(bis(2-pyridylmethyl)amino)methyl]-4-methylphenol]
species formed in ESI-MS(+) spectrum [4]: only ascribable to the copper complex
